According to US9464106B2, “Oligonucleotides useful for detecting and analyzing nucleic acids of interest” (Exiqon A/S, priority 2002, dated 2016):
Like-named read-outs stand apart in the source and are kept apart here. l = locked nucleic acid (LNA); [5mC] = 5-methylcytosine; {Biotin} = biotin label; d = 2'-deoxy (DNA)

Columns and labels:
[1] = test system: 3′-ACGACCAC-5′ / 3′-ACGGCCAC-5′; test: Tm of LNA:DNA and DNA:DNA 8-mer duplexes, perfect match and single mismatch; format: binding; settings: for ΔTm: perfect match minus single mismatch; for Tm of LNA:DNA Duplexes, Perfect match: target 3′-ACGACCAC-5′; for Tm of LNA:DNA Duplexes, Single mismatch: target 3′-ACGGCCAC-5′
From the text: It is often difficult to design probes and primers with the same range of melting temperature due to the variance in A/T and G/C content of the probing sites. Highly A/T rich regions typically give lower Tm values. Furthermore, if single mismatches are to be resolved, G/T mismatches are known to contribute little to ΔTm. As discussed above, the use of LNA is a desirable way to solve problems related to multiplex use of primers and probes. LNA offers the possibility to adjust Tm and increase the ΔTm at the same time. LNA increases Tm with 4-8° C./substitution and increases ΔTm in many cases (Table 9).

[2] = test system: DNA target 3′-d(CACTYTACG); settings: data reported earlier; cited from earlier work
[3] = test system: DNA target 3′-d(CACTYTACG); test: Thermal denaturation of ON1-ON11 towards DNA complements; format: binding; settings: 1.5 μM of the two strands
[4] = test system: C. elegans genes relevant for general stress response and metabolism of toxic compounds
human satellite-2 repeat = test: FISH on metaphase chromosomes with satellite-2 LNA/DNA mixmers; format: binding; settings: for FISH signals on chromosomes: 6.4 pmoles Cy3 labeled probe, 30 minutes at 37° C., simultaneous denaturation at 75° C. for 5 minutes; for FISH signals without a denaturation step: overnight hybridization
Protocol: Chromosome preparations were made by standard methods from peripheral lymphocyte cultures of normal males. Slides were prepared 1-4 days prior to an experiment and treated with RNAse (10 μg/μl) at 37° C. for one hour before hybridization. The 23 bp human satellite-2 repeat sequence, [NT], was used to prepare the […] different content and sequence order of LNA modifications (Table 19). All […] labeled in the 5' end with either Cy3 or biotin. Biotin amidite was purchased from Applied Biosystems and Cy3 amidite was purchased from Amersham Bioscience. […] FISH was carried out as described by […], Guven […], Turner Z. (1998) Not para-, not peri-, but centric inversion of chromosome 12. […] (1); with the following modifications including: […] In addition the effect of denaturation was also tested. Two alternative hybridization mixtures were used: 50% formamide/2×SSC (pH 7.0)/10% dextran sulphate or 2×SSC (pH 7.0)/10% dextran sulphate. Hybridization times included 30 min, 1 hr, 2 hrs, 3 hrs and overnight. Hybridization temperatures included: 37° C., 55° C., 60° C. and 72° C. Post washing was either as for standard FISH (1), or with 50% formamide/2×SSC at 60° C., or without formamide. Hybridization signals with biotin labeled LNA substituted oligonucleotide probes were visualized indirectly using two layers of fluorescein-labeled avidin (Vector Labs) linked by a biotinylated anti-avidin molecule, which amplified the signal 8-64 times. The hybridization of Cy3 labeled molecules however, was visualized directly after a short washing procedure. […] The whole procedure was carried out in the dark. The signals were visualized using a Leica DMRB epifluorescence microscope equipped with a SenSys charge-coupled device camera (Photometrics, Tucson, Ariz.), and IPLAB Spectrum Quips FISH software (Applied Imaging international Ltd, Newcastle, UK) within two days after hybridization.

[5] = test system: human chromosome 21 alphaRI (680) locus alpha-satellite repeat; test: FISH with chromosome-21 specific centromere LNA probes; format: binding; settings: 40 min. hybridization at RT
[6] = test system: DNA oligonucleotides (HNFas128A-2, Gluc53as-A); test: Mismatch discrimination of chimeric LNA-DNA 12-mers containing LNA-A or LNA-D; format: binding
[7] = test system: splice variant #1 and #2 transcripts spiked into C. elegans total RNA; test: Splice variant ratio detection with merged LNA block capture probes (Example 9); format: binding; settings: signal ratio KU007/KU008, Cy5, normalized
human telomere repeat = test: FISH with human telomere repeat LNA probe; format: binding; settings: 5 pmoles probe, 30 min. hybridization at 37° C.
Protocol: Chromosome preparations were made by standard methods from peripheral lymphocyte cultures of two normal males. Slides were prepared 1-6 days prior to an experiment and treated with RNAse (10 μg/μl) at 37° C. for one hour before hybridization. […] FISH was carried out as described previously (Silahtaroglu et al, 1998) with the following modifications. […] Slides were washed after 30 min. hybridization at 37° C. Post washing steps included a 2×5 min 0.1×SSC at 60° C.; 5 min 2×SSC at 37° C.; 3 min 4×SSC/0.05% Tween20 at 37° C. and 5 min PBS. […] The whole procedure was carried out in the dark. The signals were visualized using a Leica DMRB epifluorescence microscope equipped with a SenSys charge-coupled device camera (Photometrics, Tucson, Ariz.), and IPLAB Spectrum Quips FISH software (Applied Imaging international Ltd., Newcastle, UK).

[8] = C. elegans, incubation 24 hours

Question: Which ΔTm [1] does the source give for “5′-TGCTGGTG-3′ [DNA 8-mer, reference compound]” here?
Answer: 10 °C

Question: What about the “Tm of LNA:DNA Duplexes, Perfect match” value [1] of the same compound?
Answer: 35 °C

Question: What about the “Tm of LNA:DNA Duplexes, Single mismatch” value [1] of the same compound?
Answer: 25 °C

Question: What does the source list for 5′-TGCTGGTG-3′ [LNA 8-mer]?
Answer: ΔTm [1]: 26 °C; Tm of LNA:DNA Duplexes, Perfect match [1]: 71 °C; Tm of LNA:DNA Duplexes, Single mismatch [1]: 45 °C

Question: With 5′-d(GTGATATGC) [ON1] as the compound, how does the “Tm, Y = A” value [2] read?
Answer: 28 °C

Question: And the “Tm, Y = C” value [2]?
Answer: 11 °C

Question: What about the “Tm, Y = G” value [2] of the same compound?
Answer: 12 °C

Question: What about the “Tm, Y = T” value [2] of the same compound?
Answer: 19 °C

Question: With “5′-d[2′-OMe(GTGATATGC)] [ON5, reference compound]” as the compound, how does the “Tm, Y = A” value ([3]; 10 mM sodium phosphate, 100 mM sodium chloride, 0.1 mM EDTA, pH 7.0) read?
Answer: 35 °C

Question: And the “Tm, Y = C” value ([3]; medium salt buffer)?
Answer: 14 °C

Question: And the “Tm, Y = G” value ([3]; medium salt buffer)?
Answer: 19 °C

Question: What about the “Tm, Y = T” value ([3]; medium salt buffer) of the same compound?
Answer: 21 °C

Question: Which results are given for `Cc1c(OCC(F)(F)F)ccnc1C[S+]([O-])c1nc2ccccc2[nH]1` (stereo not drawn) [Lansoprazole]?
Answer: Log2 transformed fold of change, HSP90 (C47E8.5) [4, 8]: −1.17; Log2 transformed fold of change, Ubiquitin (M7.1) [4, 8]: −0.12; Log2 transformed fold of change, CYP37A (F01D5.9) ([4]; in vivo): 0.98

Question: Which melting point does the source give for `Nc1ncc2ncn([C@@H]3O[C@@]4(CO)CO[C@@H]3[C@@H]4O)c2n1` [compound 23, (1S,3R,4R,7S)-3-(2-aminopurin-9-yl)-7-hydroxy-1-hydroxymethyl-2,5-dioxabicyclo[2.2.1]heptane] here?
Answer: 227.5 to 229 °C (dec.)

Question: For “ATtCcAtTcGaTtCcAtTcGaTc (as printed in the source, key not given here) [LNA-2]”, which “FISH signals on chromosomes” value (human satellite-2 repeat) is on record?
Answer: signals on chromosomes 1, 16, 9 and 15

Question: What about the “FISH signals without a denaturation step” value (human satellite-2 repeat) of the same compound?
Answer: giving the best signals

Question: For “TgTgTaCcCaGcCaAaGgAgTtGa (TGTGTACCCAGCCAAAGGAGTTGA; sugars from the 5' end ldldldldldldldldldldldld, 5' {Biotin}, backbone and methylation of C not given here) [5′ biotin-labelled 24-mer FISH probe]”, which “FISH signals on chromosomes” value [5] is on record?
Answer: prominent signals both on chromosomes 13 and 21

Question: Which “FISH signals on chromosomes” value [5] does the source give for “aCcCaGcCaAaGgAg (ACCCAGCCAAAGGAG; sugars from the 5' end dldldldldldldld, 5' {Biotin}, backbone and methylation of C not given here) [5′ biotin-labelled 15-mer FISH probe]” here?
Answer: prominent signals on chromosome 21

Question: With “aTTCcattcgATTccattcGATc (ATTCCATTCGATTCCATTCGATC; sugars from the 5' end dlllddddddlllddddddllld, backbone and methylation of C not given here; 5' end labelled with Cy3 or biotin) [LNA Blocks]” as the compound, how does the “FISH signals on chromosomes” value (human satellite-2 repeat) read?
Answer: smaller signals on chromosome 1

Question: With “aTtcCatTcgAtTccAttCgaTc (ATTCCATTCGATTCCATTCGATC; sugars from the 5' end dlddlddlddldlddlddlddld, backbone and methylation of C not given here; 5' end labelled with Cy3 or biotin) [LNA-3]” as the compound, how does the “FISH signals on chromosomes” value (human satellite-2 repeat) read?
Answer: bright signals on chromosomes 1, 16 and 9

Question: For “aTtccatTcgaTtccAttcgaTc (ATTCCATTCGATTCCATTCGATC; sugars from the 5' end dldddddldddldddldddddld, backbone and methylation of C not given here; 5' end labelled with Cy3 or biotin) [Dispersed LNA]”, which “FISH signals on chromosomes” value (human satellite-2 repeat) is on record?
Answer: signals on chromosomes 1 and 16 only

Question: Which results are given for “attccattcgattccattcgatc (ATTCCATTCGATTCCATTCGATC; chemistry not given here) [DNA oligo, reference compound]”?
Answer: FISH signals on chromosomes (human satellite-2 repeat): no signals on any of the chromosomes; FISH signals without a denaturation step (human satellite-2 repeat): no signals were obtained

Question: What does the source list for “cAmCtgGAmCtctt (CACTGGACTCTT; chemistry not given here)”?
Answer: ΔTm between singly mismatched and perfect duplexes ([6]; Gluc53as-A): −10.9 °C; Tm with aagaggccagtg (singly mismatched) ([6]; Gluc53as-A, duplexes 2 μM): 50.6 °C; Tm with aagagtccagtg (perfect) ([6]; Gluc53as-A, duplexes 2 μM): 61.5 °C

Question: For “caacactgcccagaggttcaatcGATGTgtgataggatcagtgttcaggg (CAACACTGCCCAGAGGTTCAATCGATGTGTGATAGGATCAGTGTTCAGGG; sugars from the 5' end d23 l5 d22, backbone not given here; further chemistry not fully specified) [gene78.m01INS4_50_block]”, which “Observed ratio (log2) with merged LNA block capture probes” value (from here on “Observed ratio (log2)”) [7] is on record?
Answer: −2.39

Question: Which “Observed ratio (log2)” value [7] does the source give for “caacactgcccagaggttcaatcGATmCmCgatgatcctaatgaaggcgccc (CAACACTGCCCAGAGGTTCAATCGATCCGATGATCCTAATGAAGGCGCCC; sugars from the 5' end d23 l5 d22, [5mC] at 27, 28, backbone not given here; further chemistry not fully specified) [gene78.m01INS3_50_block]” here?
Answer: 2.93

Question: Which “Observed ratio (log2)” value [7] does the source give for “gaaggcgaaggagactgctAATATcgataaatatgtgaaggaaatgcctg (as printed in the source, key not given here) [gene78.mINS403_50_block]” here?
Answer: −0.86

Question: Which “Observed ratio (log2)” value [7] does the source give for “gene78.m0103: merged probe corresponding to the exon 01-exon 03 border (DNA CACAACACTGCCCAGAGGTTCAATCGATAAATATGTGAAGGAAATGCCTG; listed as DNA, chemistry not fully specified)” here?
Answer: −0.24

Question: For “gtccagtatcgtccatcatAGTATcgataaatatgtgaaggaaatgcctg (as printed in the source, key not given here) [gene78.mINS303_50_block]”, which “Observed ratio (log2)” value [7] is on record?
Answer: 3.11

Question: For “tGtggGATGttg (TGTGGGATGTTG; chemistry not given here)”, which “ΔTm between singly mismatched and perfect duplexes” value ([6]; HNFas128A-2) is on record?
Answer: −15.1 °C

Question: What about the “Tm with caacaacccaca (singly mismatched)” value ([6]; HNFas128A-2, duplexes 2 μM) of the same compound?
Answer: 45.9 °C

Question: And the “Tm with caacatcccaca (perfect)” value ([6]; HNFas128A-2, duplexes 2 μM)?
Answer: 61.0 °C

Question: Which “FISH signals on telomeres” value (human telomere repeat) does the source give for “ttagggttagggttagggttaggg [human telomere repeat specific LNA oligonucleotide probe] (TTAGGGTTAGGGTTAGGGTTAGGG)” here?
Answer: prominent signals on the telomeres
